pIC50: −log10 of the molar value.
What was measured:
[1] = tested on: dengue virus serotype 2—strain 16681 (DENV2); test: DENV2 infection of Huh7 cells, infectious virus release in supernatants (plaque assay on BHK cells); type: cell-based
Procedure: • 2.1 Material and methods Huh7, human hepatoma cells were used for all primary experiments. For all siRNA experiments, cells were seeded in 24-well plates at a concentration of 2×10^5 cells/well in DMEM and 10% FBS. […] During siRNA and drug treatment the media was removed and replaced with DMEM and 2% FBS and a corresponding concentration of siRNA or ambroxol. During viral infection, all media is removed and set aside, and a viral inoculum is added to the cells. The cells and viral inoculum are incubated for 1 hr at room temperature on a rocker. The virus is then aspirated from cells, cells are washed with 1Xphosphate buffer saline (PBS), the media is re-added to the cells, and cells are incubated at 37° C. and 5% CO2 for 24 h. […] Plaque assay analysis of infectious virus release from supernatants was conducted on baby hamster kidney cells (BHK cells). BHK cells are maintained in MEM with 10% FBS. For plaque assays, BHKs are seeded in 6 well plates at a density of […] cells/well. The following day, dilutions of viral supernatants collected from samples are applied to BHK cells, followed by a 1 hr incubation at room temperature, and then cells are overlaid with MEM containing 5% FBS and 2% agarose. Plaques are counted at 6 days post infection. For qRT-PCR analysis, cells are collected post infection in TRIzol reagent (Invitrogen), and RNA is extracted per manufacturer's protocol. A one-step qRT-PCR kit from Agilent (Brilliant III Ultra Fast SYBR Green qRT-PCR Kit) is used to assess viral genome copies. A standard curve of viral RNA is generated using a viral RNA from a cDNA subclone of DENV2 as described in Gullberg RC, et al. 2018. Copies of viral RNA are normalized to the ribosomal protein lateral stalk protein subunit PO (RPLPO) gene using the delta delta Cq method also described in Gullberg RC et al. 2018 (cited above).
Huh7 cells were treated with siRNA targeting glucosylceramidase beta 1 (GBA1) and infected with dengue virus serotype 2—strain 16681 (DENV2) with a multiplicity of infection or MOI=0.3) according to known techniques (Gullberg RC et al. 2018 cited above). After 24 hours post infection (hpi), supernatants were collected and analyzed via plaque assay on baby hamster kidney cells (BHK cells) for infectious virus release.
Huh7 cells were pre-treated with Ambroxol hydrochloride at 0.391, 0.781, 1.56, 3.125, 6.25, 12.5, 25, 50, 100, and 200 μM for 24 h, followed by DENV2 infection with MOI=0.1; or MOI=5). 24 hours post infection, supernatants were collected and analyzed via plaque assay on BHK cells.
Huh7 cells were treated with siRNAs targeting GBA1 and glucosylceramidase beta 2 (GBA2) enzymes followed by DENV2 infection with MOI=0.1; or MOI=5). 24 hpi, supernatants were collected and analyzed via plaque assay on BHK cells while RNA was extracted from cells and analyzed via qRT-PCR for DENV2 genome replication. Results

SARS-CoV-2 = test: Antiviral activity against SARS-CoV-2 in A549-ACE2 cells (supernatant viral load by RT-qPCR); details: for antiviral effect on SARS-CoV-2 replication / viral load: 10^−8 to 5.10^−5 M, 48 h, hydrochloride
Huh7 cells = test: Cytotoxicity in Huh7 cells (AlamarBlue); type: cell-based, human; details: 0.391 to 200 μM
A549-ACE2 cells = test: Cytotoxicity in A549-ACE2 cells (AlamarBlue); details: 48 h incubation, 10^−8 to 5.10^−5 M

**Q.** Which results are given for `Cl.Nc1c(Br)cc(Br)cc1CN[C@H]1CC[C@H](O)CC1` [Ambroxol, trans-4-(2-Amino-3,5-dibromobenzylamino) cyclohexanol hydrochloride]?
**A.** potency against Dengue virus relative to SARS-CoV-2 ([1]; Dengue versus SARS-CoV-2): 10 fold; pIC50 ([1]; Dengue virus, DENV2, MOI 0.1, read-out: IC50 against Dengue virus): 6.07; concentration above which no detectable virus was released from cells ([1]; MOI=0.1, Huh7 cells, 24 h post infection): above 6.25 μM; DENV2 release from Huh7 cells, low MOI ([1]; MOI=0.1, all concentrations tested (0.391 to 200 μM), 24 h pre-treatment, 24 h post infection): statistically significant reduction of DENV2 release; concentration giving a statistically significant reduction of DENV2 release ([1]; MOI=5, Huh7 cells, 24 h post infection): ≥ 12.5 µM; DENV2 release from Huh7 cells, high MOI ([1]; MOI=5, all concentrations tested (0.391 to 200 μM), 24 h post infection): reduced DENV2 release; antiviral effect on SARS-CoV-2 replication / viral load (SARS-CoV-2): significant concentration-dependent antiviral effect; antiviral effect on SARS-CoV-2 replication / viral load (SARS-CoV-2; listed as ambroxol): concentration-dependent effect reducing SARS-CoV-2 viral load; maximal antiviral effect compared with remdesivir (SARS-CoV-2; dose-response of FIG. 1C): equivalent to that of remdesivir; pIC50 (SARS-CoV-2; read-out: 50% effective concentration (IC50), SARS-CoV-2 supernatant viral load, MOI 0.1, 48 h post infection, hydrochloride): 4.66; cytopathic effect on cells (Huh7 cells): only the highest concentrations (100 μM and 200 μM) having any cytopathic effect; cell viability (cytotoxicity) (A549-ACE2 cells): no toxic effects on cell viability
